According to US5962504A, “Substituted 2-pyrrolidinone activators of PKC” (Georgetown University, priority 1998, dated 1999):

How the values were obtained:
PKC [1] = test: ability of representative compounds to activate PKC (Ki, Table 1; procedure similar to Kozikowski et al. J. Med. Chem. 1997); format: binding; conditions: read-out: Ki ± SEM
PKC [2] = conditions: background statement; cited from earlier work

Compound | Ki (PKC [1]) [µM] | PKC activation, isozyme selectivity (PKC [2])
CC(C)[C@H]1C(=O)N[C@H](CO)[C@@H]1c1ccccc1 [Compound 4a, (3R, 4S, 5S)-3-Isopropyl-4-phenyl-5-(hydroxymethyl)pyrrolidin-2-one] | 129 | –
CCCCCC(=O)Oc1ccc([C@@H]2[C@@H](C(C)C)C(=O)N[C@@H]2CO)c2ccccc12 [Compound 11b, (3R,4S,5S)-3-Isopropyl-4-(4-hexanoyloxynaphth-1-yl)-5-(hydroxymethyl)pyrrolidin-2-one] | 0.5 ± 0.04 | –
CC(C)[C@H]1C(=O)N[C@H](CO)[C@@H]1c1cccc2ccccc12 [Compound 11a, (3R,4S,5S)-3-Isopropyl-4-(1-naphthyl)-5-(hydroxymethyl)pyrrolidin-2-one] | 5.5 | –
CCCCCCCCCc1ccc([C@@H]2[C@@H](C(C)C)C(=O)N[C@@H]2CO)cc1 [Compound 4b, (3R, 4S, 5S)-3-Isopropyl-4-(4-nonylphenyl)-5-(hydroxymethyl)-pyrrolidin-2-one] | 2.3 ± 0.2 | –
CC1=C[C@H]2[C@@]3(O)[C@H](C)C[C@]4(OC(=O)Cc5ccccc5)[C@H]([C@@H]3C=C(CO)C[C@]2(O)C1=O)C4(C)C [Dpp, 12-deoxyphorbol 13-phenylacetate] | – | isozyme-selective activators of PKC
